Data published in ChEMBL document CHEMBL4665851, “Design, synthesis, antimycobacterial activity and molecular docking studies of novel 3- (N-substituted glycinamido) benzoic acid analogues as anti tubercular agents” (Bioorg Med Chem Lett, 2020).
In brackets after ≈: the same amount, converted by molar mass.

Columns and labels:
Settings in all cases: time 5.0 day
[1] = test system: Mycobacterium tuberculosis H37Rv; assay: Inhibition of MmA1 in Mycobacterium tuberculosis H37Rv assessed as reduction in bacterial growth incubated for 5 days by MABA assay
[2] = test system: Mycobacterium tuberculosis H37Rv; assay: Potency index, ratio of ciprofloxacin MIC to test compound MIC for Inhibition of MmA1-mediated antitubercular activity against Mycobacterium tuberculosis H37Rv incubated for 5 days by MABA assay
[3] = test system: Mycobacterium tuberculosis H37Rv; assay: Potency index, ratio of pyrazinamide MIC to test compound MIC for Inhibition of MmA1-mediated antitubercular activity against Mycobacterium tuberculosis H37Rv incubated for 5 days by MABA assay
[4] = test system: Mycobacterium tuberculosis H37Rv; assay: Potency index, ratio of streptomycin MIC to test compound MIC for Inhibition of MmA1-mediated antitubercular activity against Mycobacterium tuberculosis H37Rv incubated for 5 days by MABA assay

SMILES	MIC [1] [µg/mL]	Ratio [2]	Ratio [3]	Ratio [4]
O=C(CN1CCN(Cc2ccccc2)CC1)Nc1cccc(C(=O)O)c1	3.12 (≈ 8.83 µM)			
CCN(CC)CC(=O)Nc1cccc(C(=O)O)c1	3.12 (≈ 12.5 µM)			
O=C(Cn1ccnc1)Nc1cccc(C(=O)O)c1	12.5 (≈ 51 µM)			
O=C(CNc1ccc(Cl)cc1)Nc1cccc(C(=O)O)c1	6.25 (≈ 20.5 µM)			
O=C(CN1CCCC1)Nc1cccc(C(=O)O)c1	1.6 (≈ 6.44 µM)	> 2	> 2	> 2
Cc1ccc(NCC(=O)Nc2cccc(C(=O)O)c2)cc1	6.25 (≈ 22 µM)			
O=C(CN1CCCCC1)Nc1cccc(C(=O)O)c1	1.6 (≈ 6.1 µM)	> 2	> 2	> 2
O=C(CNc1ccc(Br)cc1)Nc1cccc(C(=O)O)c1	3.12 (≈ 8.94 µM)			
NC(=O)c1cnccn1	3.12 (≈ 25.3 µM)			
O=C(CNc1ccccn1)Nc1cccc(C(=O)O)c1	12.5 (≈ 46.1 µM)			
O=C(CNc1ccc(F)cc1F)Nc1cccc(C(=O)O)c1	1.6 (≈ 5.22 µM)	> 2	> 2	> 2
CN[C@@H]1[C@H](O[C@H]2[C@H](O[C@H]3[C@H](O)[C@@H](O)[C@H](N=C(N)N)[C@@H](O)[C@@H]3N=C(N)N)O[C@@H](C)[C@]2(O)C=O)O[C@@H](CO)[C@H](O)[C@H]1O	6.25 (≈ 10.7 µM)			
O=C(CN1CCOCC1)Nc1cccc(C(=O)O)c1	25 (≈ 94.6 µM)			
O=C(CNc1ccccc1)Nc1cccc(C(=O)O)c1	6.25 (≈ 23.1 µM)			
CN1CCN(CC(=O)Nc2cccc(C(=O)O)c2)CC1	1.6 (≈ 5.77 µM)	> 2	> 2	> 2
O=C(CN1CCOCC1)Nc1cccc(C(=O)Nc2ccc3[nH]cnc(=O)c3c2)c1	100 (≈ 245 µM)			
O=C(CN1CCN(c2ccccc2)CC1)Nc1cccc(C(=O)O)c1	1.6 (≈ 4.71 µM)	> 2	> 2	> 2
O=C(O)c1cn(C2CC2)c2cc(N3CCNCC3)c(F)cc2c1=O	3.12 (≈ 9.42 µM)			
